Laboratory results: patent US20100112617A1, “Evaluating RTK Target Drugs” (Apocell, Inc, priority 2007, published 2010)

Legend:
Type in all cases: cell-based
PDGFR-β [1] = target: T1, PDGFR-β (Homo sapiens, UniProt P09619); assay: pPDGFR-β/tPDGFR-β ratio in PDGF-stimulated HUVEC cells; design: endogenous in cells; host or cells: HUVEC; settings: for HUVEC pPDGFR-β/tPDGFR-β fold ratio change: PDGF 50 ng/ml 10 min
Excerpt: (§1) Thus, we repeated the experiment using additional RTKs and RTKIs. We used a known RTKI challenge reagent SU11248, which blocks phosphorylation of several kinases, including VEGFR2 (KDR), stem cell tyrosine kinase receptor (KIT), platelet-derived growth factor receptor (PDGFR), and fms-related tyrosine kinase 3 (FLT3).

PDGFR-β [2] = target: T1, PDGFR-β; assay: pPDGFR-β/tPDGFR-β ratio in PDGF-stimulated GIST cells; design: endogenous in cells; host or cells: GIST (gastrointestinal stromal tumor) cells; settings: for GIST pPDGFR-β/tPDGFR-β fold ratio change: PDGF 50 ng/ml 10 min
Excerpt: as §1

EGFR = target: T2, EGFR (Homo sapiens, UniProt P00533); assay: pEGFR and tEGFR levels in EGF-stimulated HT-29 colon cancer cells by laser scanning cytometry; settings: HT-29 cells; for pEGFR fold change in level / pEGFR/tEGFR fold change in level / tEGFR fold change in level: 0% FCS, EGF 100 ng/ml for 5 min
T2 construct: host or cells: HT-29 colon cancer cells
Procedure: We sought to test RTK response to RTKI's and thus measured both phospho-RTK and total RTK using a known RTKI challenge reagent. AEE788 (NOVARTIS®) is an oral multiple-receptor tyrosine kinase inhibitor of EGFR, human epidermal growth factor receptor 2 (HER-2), and vascular endothelial growth factor receptor (VEGFR). Thus, we measured EGFR response to AEE788 using antibody quantitation of the two parameters. HT-29 colon cancer cells were treated with increasing doses of AEE788, (0, 4, 20, 100, and 1000 nM) for 4 hours in serum-free media followed by EGF stimulation at 100 ng/ml for 5 minutes. Cells were then fixed and stained with anti-phospho-EGFR (P-EGFR-Y1173) antibody followed by a secondary antibody conjugated with a fluorescent probe. The mean fluorescence index (MFI) of pEGFR was quantified by laser scanning cytometry (LSC) […] and the results are shown in Table 2.

T1 sequence (P09619 33-1106): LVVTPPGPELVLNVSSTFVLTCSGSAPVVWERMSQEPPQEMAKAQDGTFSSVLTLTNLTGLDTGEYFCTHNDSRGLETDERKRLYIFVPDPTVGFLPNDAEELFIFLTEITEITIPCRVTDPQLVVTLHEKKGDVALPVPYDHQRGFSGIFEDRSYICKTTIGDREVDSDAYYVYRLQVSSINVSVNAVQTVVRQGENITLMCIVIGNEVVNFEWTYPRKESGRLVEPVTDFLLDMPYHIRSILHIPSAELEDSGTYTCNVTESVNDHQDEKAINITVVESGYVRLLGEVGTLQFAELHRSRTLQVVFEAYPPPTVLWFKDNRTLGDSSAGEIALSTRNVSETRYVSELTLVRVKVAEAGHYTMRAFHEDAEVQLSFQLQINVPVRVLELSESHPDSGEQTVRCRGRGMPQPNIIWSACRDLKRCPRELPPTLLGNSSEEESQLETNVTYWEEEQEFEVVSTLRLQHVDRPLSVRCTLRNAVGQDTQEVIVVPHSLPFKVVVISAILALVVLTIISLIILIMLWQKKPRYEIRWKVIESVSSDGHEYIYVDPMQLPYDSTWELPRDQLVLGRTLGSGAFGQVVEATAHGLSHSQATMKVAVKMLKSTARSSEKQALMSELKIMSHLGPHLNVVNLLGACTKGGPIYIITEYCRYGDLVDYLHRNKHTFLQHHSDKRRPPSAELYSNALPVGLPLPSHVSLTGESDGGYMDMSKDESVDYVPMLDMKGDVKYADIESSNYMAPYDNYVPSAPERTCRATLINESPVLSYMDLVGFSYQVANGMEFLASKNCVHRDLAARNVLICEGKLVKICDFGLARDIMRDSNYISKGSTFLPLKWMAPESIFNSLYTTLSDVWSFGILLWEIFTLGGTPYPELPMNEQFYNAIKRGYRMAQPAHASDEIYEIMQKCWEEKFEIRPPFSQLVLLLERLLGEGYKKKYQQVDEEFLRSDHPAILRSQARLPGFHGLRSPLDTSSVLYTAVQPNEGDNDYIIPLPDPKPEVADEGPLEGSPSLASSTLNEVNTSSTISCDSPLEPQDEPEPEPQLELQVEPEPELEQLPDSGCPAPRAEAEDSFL
T2 sequence (P00533 25-1210): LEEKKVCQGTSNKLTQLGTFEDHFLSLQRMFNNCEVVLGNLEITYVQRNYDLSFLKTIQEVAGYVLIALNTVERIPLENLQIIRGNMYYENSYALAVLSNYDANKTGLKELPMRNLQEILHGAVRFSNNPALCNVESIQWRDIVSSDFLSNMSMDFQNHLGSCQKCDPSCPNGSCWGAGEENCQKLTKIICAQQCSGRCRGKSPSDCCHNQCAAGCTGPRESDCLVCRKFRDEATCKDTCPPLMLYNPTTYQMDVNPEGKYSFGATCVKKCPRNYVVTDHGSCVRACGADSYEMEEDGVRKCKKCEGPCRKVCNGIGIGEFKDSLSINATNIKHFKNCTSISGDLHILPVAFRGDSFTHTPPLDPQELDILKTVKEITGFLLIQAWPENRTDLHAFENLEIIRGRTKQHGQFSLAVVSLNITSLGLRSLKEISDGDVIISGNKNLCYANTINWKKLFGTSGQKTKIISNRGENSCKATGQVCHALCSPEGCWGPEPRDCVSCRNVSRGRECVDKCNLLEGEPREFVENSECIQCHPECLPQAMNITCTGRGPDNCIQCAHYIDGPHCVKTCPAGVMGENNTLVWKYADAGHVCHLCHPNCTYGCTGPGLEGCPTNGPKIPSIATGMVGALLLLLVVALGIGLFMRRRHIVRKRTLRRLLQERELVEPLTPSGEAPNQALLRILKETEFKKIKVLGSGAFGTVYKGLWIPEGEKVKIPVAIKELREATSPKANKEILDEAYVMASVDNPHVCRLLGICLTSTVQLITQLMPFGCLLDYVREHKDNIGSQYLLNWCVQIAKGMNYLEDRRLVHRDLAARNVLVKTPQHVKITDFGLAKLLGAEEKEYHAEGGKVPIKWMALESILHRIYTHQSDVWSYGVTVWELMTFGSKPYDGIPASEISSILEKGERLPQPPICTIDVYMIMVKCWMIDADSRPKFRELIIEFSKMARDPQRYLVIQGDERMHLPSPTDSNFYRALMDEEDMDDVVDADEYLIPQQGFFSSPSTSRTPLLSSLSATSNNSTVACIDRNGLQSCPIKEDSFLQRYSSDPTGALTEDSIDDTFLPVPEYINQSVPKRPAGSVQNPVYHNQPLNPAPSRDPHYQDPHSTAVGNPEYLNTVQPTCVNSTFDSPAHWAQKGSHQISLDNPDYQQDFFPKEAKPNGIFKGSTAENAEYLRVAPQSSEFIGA

SMILES: CCN(CC)CCNC(=O)c1c(C)[nH]c(/C=C2\C(=O)Nc3ccc(F)cc32)c1C [SU11248]
- pPDGFR-β/tPDGFR-β ratio, in words (PDGFR-β [1]): decreased in a dose-dependent manner
- HUVEC pPDGFR-β/tPDGFR-β fold ratio change (PDGFR-β [1]; 0.01 μM): 2.42 ± 0.36 fold
- HUVEC pPDGFR-β/tPDGFR-β fold ratio change (PDGFR-β [1]; 0.1 μM): 1.48 ± 0.15 fold
- HUVEC pPDGFR-β/tPDGFR-β fold ratio change (PDGFR-β [1]; 1 μM): 1.40 ± 0.23 fold
- pPDGFR-β/tPDGFR-β ratio, in words (PDGFR-β [2]): decreased in a dose-dependent manner
- GIST pPDGFR-β/tPDGFR-β fold ratio change (PDGFR-β [2]; 0.01 μM): 0.97 ± 0.05 fold
- GIST pPDGFR-β/tPDGFR-β fold ratio change (PDGFR-β [2]; 0.1 μM): 0.00 ± 0.59 fold
- GIST pPDGFR-β/tPDGFR-β fold ratio change (PDGFR-β [2]; 1 μM): 0.00 ± 0.08 fold

SMILES: CCN1CCN(Cc2ccc(-c3cc4c(N[C@H](C)c5ccccc5)ncnc4[nH]3)cc2)CC1 [AEE788]
- pEGFR fold change in level (EGFR; 4 nM for 4 h): 1.36 fold
- pEGFR/tEGFR fold change in level (EGFR; 4 nM for 4 h): 0.65 fold
- tEGFR fold change in level (EGFR; 4 nM for 4 h): 2.11 fold
- pEGFR fold change in level (EGFR; 20 nM for 4 h): 0.97 fold
- pEGFR/tEGFR fold change in level (EGFR; 20 nM for 4 h): 0.21 fold
- tEGFR fold change in level (EGFR; 20 nM for 4 h): 4.61 fold
- pEGFR fold change in level (EGFR; 100 nM for 4 h): 0.70 fold
- pEGFR/tEGFR fold change in level (EGFR; 100 nM for 4 h): 0.16 fold
- tEGFR fold change in level (EGFR; 100 nM for 4 h): 4.37 fold
- pEGFR fold change in level (EGFR; 1000 nM for 4 h): 0.52 fold
- pEGFR/tEGFR fold change in level (EGFR; 1000 nM for 4 h): 0.15 fold
- tEGFR fold change in level (EGFR; 1000 nM for 4 h): 3.53 fold
- EGF-induced phosphorylation of EGFR (pEGFR), in words (EGFR; 4-1000 nM): inhibited EGF-induced phosphorylation of its receptor (pEGFR) in a dose-dependent manner
- total EGFR levels, in words (EGFR; 4-1000 nM): up-regulated total EGFR levels
